The values below come from US9642889B2, “Macrocyclic inhibitors of Flaviviridae viruses” (Selcia Limited, priority 2012, dated 2017).

The conditions of data set [1]: rcm bond; 22-membered ring; Hoveyda-Grubbs II; 1,2-dichloroethane; 3.01 mM; 80.0 °C; 2 steps.
Data set [2] deals with Huh-7 HCV replicon cells (1b replicon). The experiment in a line: anti-HCV activity in Huh-7 cell line harboring a HCV replicon (luciferase readout). The class given is cell-based. Particulars: Hepatitis C virus; for pEC50: Huh-7, 72 h. (In general: Replicon systems follow genome replication, usually without infectious particles.)
For data set [3] the following is noted: rcm bond; 22-membered ring; Hoveyda-Grubbs II; 1,2-dichloroethane; 80.0 °C.
A further data set concerns the target cyclophilin A (Homo sapiens, UniProt P62937). The experiment in a line: Cyclophilin A TR-FRET competitive binding assay. Particulars: competition with CsA-Cy5 for His-tagged CypA, two-hour incubation. As for the experimental part:
Cyclophilin A TR-FRET Competitive Binding Assay
Inhibitor potency was measured using a competitive binding assay with a time-resolved fluorescence resonance energy transfer (TR-FRET) readout. […] An IC50 value was calculated using a four-parameter logistic fit.
For orientation: In TR-FRET formats the signal depends on donor and acceptor labels being close together.

Where [4] appears, read: inhibition of viral replication, Huh-7 HCV replicon cells, 3 days, read-out: EC50.
Where [5] appears, read: Huh-7, read-out: Replicon 1b % inhibition at 1 μM, 1b replicon, 1 μM compound.

pEC50, pIC50: −log10 of the molar value. Like-named read-outs stand apart in the source and are kept apart here.

cyclophilin A, sequence (P62937 whole entry, species assumed): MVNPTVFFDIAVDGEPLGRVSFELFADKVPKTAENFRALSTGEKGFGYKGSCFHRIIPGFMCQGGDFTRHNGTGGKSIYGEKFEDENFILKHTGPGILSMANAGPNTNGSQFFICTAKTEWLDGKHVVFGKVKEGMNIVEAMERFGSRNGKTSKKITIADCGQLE

Where the note is “from C=CCCCN[C@H](C(=O)N[C@@H](C)C(=O)N1CCC[C@@H](C(=O)O[C@H](C)c2ccc3cnc(C=C)cc3c2)N1)C(C)C, rcm bond, Hoveyda-Grubbs 2nd generation catalyst, toluene, 2.97 mM, 110.0 °C, 1.25 h”, `CC(C)[C@@H]1NCCCC=Cc2cc3cc(ccc3cn2)[C@@H](C)OC(=O)[C@@H]2CCCN(N2)C(=O)[C@H](C)NC1=O` came in with a ring closure, yield of all isomers of 56%.
Under “from C=CCS(=O)(=O)N[C@H](C(=O)N[C@@H](C)C(=O)N1CCC[C@@H](C(=O)O[C@H](C)c2ccc3cnc(C=C)cc3c2)N1)C(C)C, rcm bond, Hoveyda-Grubbs 2nd Generation Catalyst, toluene, 5.0 mM, 110.0 °C, 2.0 h”, `CC(C)[C@@H]1NS(=O)(=O)CC=Cc2cc3cc(ccc3cn2)[C@@H](C)OC(=O)[C@@H]2CCCN(N2)C(=O)[C@H](C)NC1=O` showed a ring closure, yield of all isomers of 13%.
Under “from C=CCC(C)(C)C(=O)O[C@H](C(=O)N[C@@H](C)C(=O)N1CCC[C@@H](C(=O)N[C@H](C)c2ccc3cnc(C=C)cc3c2)N1)C(C)C, rcm bond, Hoveyda-Grubbs 2nd generation catalyst, toluene, 3.08 mM, 110.0 °C, 3.0 h”, `CC(C)[C@@H]1OC(=O)C(C)(C)CC=Cc2cc3cc(ccc3cn2)[C@@H](C)NC(=O)[C@@H]2CCCN(N2)C(=O)[C@H](C)NC1=O` registered a ring closure, yield of all isomers of 15%.
As to `CC(C)[C@@H]1OC(=O)CC=Cc2cc3cc(ccc3cn2)[C@@H](C)NC(=O)[C@@H]2CCCN(N2)C(=O)[C@H](C)NC1=O`, the ring closure, yield of all isomers (from C=CCC(=O)O[C@H](C(=O)N[C@@H](C)C(=O)N1CCC[C@@H](C(=O)N[C@H](C)c2ccc3cnc(C=C)cc3c2)N1)C(C)C, rcm bond, Hoveyda-Grubbs 2nd generation, toluene, 2.83 mM, 110.0 °C, 5.0 h) worked out at 1%.
Where the note is “from C=Cc1cc2cc([C@@H](C)NC(=O)[C@@H]3CCCN(C(=O)[C@H](C)NC(=O)[C@@H](OC(=O)[C@H](C)/C=C/C)C(C)C)N3)ccc2cn1, rcm bond, Hoveyda-Grubbs 2nd generation, toluene, 2.99 mM, 125.0 °C, 5.75 h”, `CC(C)[C@@H]1OC(=O)[C@H](C)C=Cc2cc3cc(ccc3cn2)[C@@H](C)NC(=O)[C@@H]2CCCN(N2)C(=O)[C@H](C)NC1=O` returned a ring closure, yield of all isomers of 1%.
`CC(C)[C@@H]1OC(=O)[C@H](C)[C@H](O[Si](C)(C)C(C)(C)C)CC/C=C/c2cccc(c2)[C@@H](C)NC(=O)[C@@H]2CCCN(N2)C(=O)[C@H](C)NC1=O` showed a ring closure, yield of all isomers (from C=CCC[C@@H](O[Si](C)(C)C(C)(C)C)[C@@H](C)C(=O)O[C@H](C(=O)N[C@@H](C)C(=O)N1CCC[C@@H](C(=O)N[C@H](C)c2cccc(C=C)c2)N1)C(C)C, rcm bond, Hoveyda-Grubbs 2nd generation catalyst, 1,2-dichloroethane, 3.01 mM, 80.0 °C, 2.0 h, 2 steps) of 16%. In data set [1], this compound came in with a ring closure, isolated yield of 16%.
In the case of `CC(C)[C@@H]1OCCCC=Cc2cc3cc(ccc3cn2)[C@@H](C)OC(=O)[C@@H]2CCCN(N2)C(=O)[C@H](C)NC1=O`, where the note is “from C=CCCCO[C@H](C(=O)N[C@@H](C)C(=O)N1CCC[C@@H](C(=O)O[C@H](C)c2ccc3cnc(C=C)cc3c2)N1)C(C)C, rcm bond, Hoveyda-Grubbs 2nd Generation Catalyst, toluene, 3.0 mM, 100.0 °C, 0.58 h”, the ring closure, yield of all isomers was 35%.
Take `CCC[C@@H]1CC=Cc2cc3cc(ccc3cn2)[C@@H](C)NC(=O)[C@@H]2CCCN(N2)C(=O)[C@H](C)NC(=O)[C@H](C(C)C)OC1=O`: where the note is “from C=CC[C@@H](CCC)C(=O)O[C@H](C(=O)N[C@@H](C)C(=O)N1CCC[C@@H](C(=O)N[C@H](C)c2ccc3cnc(C=C)cc3c2)N1)C(C)C, rcm bond, Hoveyda-Grubbs 2nd generation, toluene, 3.02 mM, 110.0 °C, 3.5 h”, the ring closure, yield of all isomers was 6%.
The compound `CO[C@@H]1C=Cc2cc3cc(ccc3cn2)[C@@H](C)NC(=O)[C@@H]2CCCN(N2)C(=O)[C@H](C)NC(=O)[C@H](C(C)C)OC(=O)[C@@H]1C` displayed a ring closure, yield of all isomers (from C=Cc1cc2cc([C@@H](C)NC(=O)[C@@H]3CCCN(C(=O)[C@H](C)NC(=O)[C@@H](OC(=O)[C@H](C)[C@@H](/C=C/C)OC)C(C)C)N3)ccc2cn1, rcm bond, Hoveyda-Grubbs 2nd generation, toluene, 2.98 mM, 125.0 °C, 6.0 h) of 1%.
In turn, `CO[C@@H]1CCC=Cc2cccc(c2)[C@@H](C)NC(=O)[C@@H]2CCCN(N2)C(=O)[C@H](C)NC(=O)[C@H](C(C)C)OC(=O)[C@@H]1C` registered a ring closure, yield of all isomers (from C=CCC[C@@H](OC)[C@@H](C)C(=O)O[C@H](C(=O)N[C@@H](C)C(=O)N1CCC[C@@H](C(=O)N[C@H](C)c2cccc(C=C)c2)N1)C(C)C, rcm bond, Hoveyda-Grubbs 2nd generation, 1,2-dichloroethane, 2.96 mM, 85.0 °C, 5.0 h) of 32%.
For `CO[C@H]1CC[C@@]2(/C=C/c3ccc4ccc(nc4c3)[C@@H](C)NC(=O)[C@@H]3CCCN(N3)C(=O)[C@H](C)NC(=O)[C@H](C(C)C)OC2=O)CC1`, where the note is “from CO[C@H]1CC[C@](/C=C/c2ccc3ccc([C@@H](C)N)nc3c2)(C(=O)O[C@H](C(=O)N[C@@H](C)C(=O)N2CCC[C@@H](C(=O)O)N2)C(C)C)CC1, amide bond, HATU/DIPEA, DCM, 4 steps”, the ring closure, yield of all isomers is 6.2%.
A word on the pEC50: it is the negative decadic logarithm of the EC50, by convention in mol/L. One may read the inhibition as the change of the read-out against control, counted positive when it falls. For orientation: pIC50 means the negative decadic logarithm of the IC50, by convention in mol/L. High values mean a low IC50, low ones a high IC50. For the setting “from C=CCCCCC(=O)O[C@H](C(=O)N[C@@H](C)C(=O)N1CCC[C@@H](C(=O)N[C@H](C)c2cccc(C=C)c2)N1)C(C)C, rcm bond, Hoveyda-Grubbs 2nd generation catalyst, 1,2-dichloroethane, 80.0 °C, 2.3 h”, `CC(C)[C@@H]1OC(=O)CCCC/C=C/c2cccc(c2)[C@@H](C)NC(=O)[C@@H]2CCCN(N2)C(=O)[C@H](C)NC1=O` [Compound 8, (E)-(2R,5S,11S,14S)-14-Isopropyl-2,11-dimethyl-15-oxa-3,9,12,28-tetraaza-tricyclo[21.3.1.1*5,9*]octacosa-1 (27),21,23,25-tetraene-4,10,13,16-tetraone] gave a ring closure, yield of all isomers of 15%. Besides, in data set [2] (setting [4]), the pEC50 is above 6.00. For the same compound, the inhibition at 1 µM in data set [2] (setting [5]) came out at 95%. The same compound showed a ring closure, yield after HPLC in data set [3] of 15%. This compound also gave a pIC50 on cyclophilin A above 7.00.
In turn, `CC(C)[C@H]1C(=O)N[C@@H](C)C(=O)N2CCC[C@H](N2)C(=O)N[C@H](C)c2cccc(c2)/C=C/CCCCC(=O)N1C` [Compound 17, (E)-(2R,5S,11 S,14S)-14-Isopropyl-2,11,15-trimethyl-3,9,12,15,28-pentaaza-tricyclo[21.3.1.1*5,9*]octacosa-1 (27),21,23,25-tetraene-4,10,13,16-tetraone] came in with a ring closure, yield of all isomers (from C=CCCCCC(=O)N(C)[C@H](C(=O)N[C@@H](C)C(=O)N1CCC[C@@H](C(=O)N[C@H](C)c2cccc(C=C)c2)N1)C(C)C, rcm bond, Hoveyda-Grubbs 2nd generation catalyst, 1,2-dichloroethane, 3.33 mM, 80.0 °C, 3.0 h) of 43%. For the same compound, the pEC50 in data set [2] (setting [4]) was 5.00 to 5.96. In addition, in data set [2] (setting [5]), the inhibition at 1 µM amounted to 39%. Besides, the pIC50 at cyclophilin A is 6.00 to 7.00.
`CCN1CCOC2(/C=C/c3ccc4ccc(nc4c3)[C@@H](C)NC(=O)[C@@H]3CCCN(N3)C(=O)[C@H](C)NC(=O)[C@H](C(C)C)OC2=O)C1` (stereo partly drawn) [Compound 96]: the pEC50 in data set [2] was above 6.00. Besides, the inhibition at 1 µM in data set [2] (Huh-7, read-out: Replicon 1b % inhibition at 1 μM) is 91%. In addition, on cyclophilin A, the pIC50 was above 7.00.
In the case of `CC(C)[C@@H]1OC(=O)C2(/C=C/c3ccc4ccc(nc4c3)[C@@H](C)NC(=O)[C@@H]3CCCN(N3)C(=O)[C@H](C)NC1=O)CN(S(C)(=O)=O)CCO2` (stereo partly drawn) [Compound 97], the pEC50 in data set [2] (setting [4]) is above 6.00. Besides, the inhibition at 1 µM in data set [2] (setting [5]) came out at 96%. The compound further had a pIC50 on cyclophilin A above 7.00.
The matching figures for `CC(C)[C@@H]1OC(=O)C2(/C=C/c3ccc4ccc(nc4c3)[C@@H](C)NC(=O)[C@@H]3CCCN(N3)C(=O)[C@H](C)NC1=O)COC(=O)OC2` [Compound 98]: above 6.00, 90% and above 7.00.
The matching figures for `CC(C)[C@@H]1OC(=O)C(CF)(CF)/C=C/c2ccc3ccc(nc3c2)[C@@H](C)NC(=O)[C@@H]2CCCN(N2)C(=O)[C@H](C)NC1=O` [Compound 99]: above 6.00, 100% and above 7.00.
On to `C[C@@H]1NC(=O)[C@H](C2CC2)OC(=O)C2(/C=C/c3ccc4ccc(nc4c3)[C@@H](C)NC(=O)[C@@H]3CCCN(N3)C1=O)CCC(O)C2` (stereo partly drawn) [Compound 102], for which the pEC50 in data set [2] (setting [4]) is 5.00 to 5.96. Also, in data set [2] (setting [5]), the inhibition at 1 µM worked out at 13%. Further, the pIC50 on cyclophilin A was above 7.00.
The matching figures for `CC(C)[C@@H]1OC(=O)C2(/C=C/c3ccc4ccc(nc4c3)[C@@H](C)NC(=O)[C@@H]3CCCN(N3)C(=O)[C@H](C)NC1=O)COC(CF)(CF)OC2` [Compound 107]: above 6.00, 100% and above 7.00.
The matching figures for `CCCC(=O)O[C@H]1CC[C@@]2(/C=C/c3ccc4ccc(nc4c3)[C@@H](C)NC(=O)[C@@H]3CCCN(N3)C(=O)[C@H](C)NC(=O)[C@H](C(C)C)OC2=O)CC1` [Compound 108]: above 6.00, 99% and above 7.00.
The matching figures for `CCC(=O)O[C@H]1CC[C@@]2(/C=C/c3ccc4ccc(nc4c3)[C@@H](C)NC(=O)[C@@H]3CCCN(N3)C(=O)[C@H](C)NC(=O)[C@H](C(C)C)OC2=O)CC1` [Compound 109]: above 6.00, 99% and above 7.00.
Take `CC(=O)O[C@H]1CC[C@@]2(/C=C/c3ccc4ccc(nc4c3)[C@@H](C)NC(=O)[C@@H]3CCCN(N3)C(=O)[C@H](C)NC(=O)[C@H](C(C)C)OC2=O)CC1` [Compound 110]: the pEC50 in data set [2] (setting [4]) is above 6.00. The inhibition at 1 µM in data set [2] (setting [5]) amounted to 100%. Moreover, on cyclophilin A, the pIC50 was above 7.00.
As for `CCC(=O)O[C@H]1CC[C@]2(/C=C/c3ccc4ccc(nc4c3)[C@@H](C)NC(=O)[C@@H]3CCCN(N3)C(=O)[C@H](C)NC(=O)[C@H](C(C)C)OC2=O)CC1` [Compound 111], in data set [2] (setting [4]), the pEC50 was above 6.00. In data set [2] (setting [5]), the inhibition at 1 µM was determined as 99%. Besides, the pIC50 on cyclophilin A was above 7.00.
The matching figures for `CC(=O)O[C@H]1CC[C@]2(/C=C/c3ccc4ccc(nc4c3)[C@@H](C)NC(=O)[C@@H]3CCCN(N3)C(=O)[C@H](C)NC(=O)[C@H](C(C)C)OC2=O)CC1` [Compound 112]: above 6.00, 100% and above 7.00.
